# Test results from patent publication US20040132666A1, “Administration of free radical scavengers to prevent or treat ischemia-reperfusion injuries” (Oregon Health & Science University, priority 2002, published 2004).
# Tests used:
# [1] = tested on: middle cerebral artery occlusion; test: Temporary (60 min) middle cerebral artery occlusion and 24 h reperfusion, total infarction volume by TTC staining (Example 2); format: in vivo, rat; conditions: for infarction volume: 60 min occlusion, 24 h reperfusion, mean ± SD
# [2] = tested on: brain glutathione levels; conditions: 10 g/m^2 intraperitoneally twice daily for 3 days; cited from earlier work
# [3] = tested on: middle cerebral artery occlusion (MCAO); test: 60 minute transient MCAO in rats, infarcted area on TTC stained brain slices (Example 1); format: in vivo, rat
# Experimental: Twenty female Long Evans rats underwent 60 minute transient MCAO. The rats were anesthetized, intubated and mechanically ventilated using 2% Isoflurane, available from Abbott Laboratories, North Chicago, Ill., and oxygen mixture. The left common carotid artery (CCA) and the bifurcation were exposed via midline incision. The branches of the left external carotid artery (ECA) were coagulated, and the ECA stump was mobilized inferiorly, the left pterygopalatine artery was ligated. A blunt tipped 3 cm long segment of a 3-0 monofilament nylon suture, available from Dermalone, United States Surgical, Norwalk, Conn., was introduced into the left internal carotid artery via the left ECA stump, and advanced 2.0-2.2 cm distance from the bifurcation. Then the proximal CCA was ligated temporarily. After the defined occlusion time the animal was re-anesthetized using a mask. The ligation of the CCA was released, and the suture was pulled back and removed allowing reperfusion of the occluded segment. […] The animals were sacrificed 24 h later with intracardiac injection of Pentobarbital. […] The pictures were analyzed using the Scion Image for Windows software (based on NIH Image Software for Macintosh). The non-stained area was outlined, and the area was calculated, as a percentage of the stroked hemisphere. Data were analyzed and graphed using Microsoft Excel Software. […]
# [4] = rat, in vivo, iv, 1000 mg/kg
# [5] = Serum NAC concentration in rats 5 min post infusion
# [6] = tested on: ischemia-reperfusion injuries; test: Single high dose versus multiple low doses of NAC against ischemia-reperfusion injuries; conditions: single high dose (400-1000 mg/kg) versus multiple low doses
Compound,infarction volume in comparison to other groups ([1]; 3 days of BSO pretreatment),reduction of brain glutathione levels [2],"infarction versus control group ([3]; 400 mg/kg i.v. 30 min before occlusion, slices 10 and 12 mm from frontal pole, significant only in last slice)","infarcted area smaller than in control group (mean) ([3]; 400 mg/kg i.v. over 15 min starting 30 min before occlusion, slices 6 and 8 mm from frontal pole, 24 h after 60 min MCAO) [%]","hematocrit after infusion (from 50%) ([1]; 2500 μl volume intravenous injection in 5 minutes, same for saline) [%]",infarction volume ([1]; Series A: 400 mg/kg i.v. -60 min to MCAO) [mm3],average reduction of total calculated infarction volume versus saline treated group ([1]; Series A: NAC 60 minutes before occlusion) [%],infarction volume ([1]; Series B: 400 mg/kg i.v. -30 min to MCAO) [mm3],average protection versus saline ([1]; Series B: NAC 30 minutes before occlusion) [%],infarction volume ([1]; Series C: 400 mg/kg i.v. at reperfusion (2 min after)) [mm3],"total volume of infarction versus saline treated group ([1]; Series C: NAC after reperfusion, p=0.84)","protection in comparison to saline controls ([1]; Series D: BSO treated, glutathione depleted animals, p=0.72)",toxicity [4],"transient decrease of mean arterial blood pressure (Long-Evans, rat, in vivo, iv) [%]","morbidity or mortality (stroke animals, intravenous 400 mg NAC in 5 min infusion)",serum NAC concentration ([5]; 400 mg/kg),serum NAC concentration ([5]; 1000 mg/kg) [mM],serum NAC concentration ([5]; about 140 mg/kg) [mM],effectiveness in preventing or treating ischemia-reperfusion injuries [6]
"CCCCS(=N)(=O)CCC(N)C(=O)O [BSO, L-buthionine-[S,R]-sulfoxamine]",did not result in higher infarction volume,at least 50%,–,–,–,–,–,–,–,–,–,–,–,–,–,–,–,–,–
"CC(=O)N[C@@H](CS)C(=O)O [NAC, N-acetylcysteine]",–,–,the infarction was smaller,38,30,143.40 ± 72,43,176.60 ± 69,34,156.41 ± 27,the difference was not significant,failed to provide significant protection,No toxicity was observed,10,did not cause significant morbidity or mortality,about 1.5 mM,~10,0.1 to 0.3,more effective
